{
  "source": "patent US10278942B2",
  "about": "(PELOTON THERAPEUTICS, INC., priority 2015, dated 2019)",
  "key": {"[1]": {"test_system": "rats with hypoxia/semaxanib induced pulmonary arterial hypertension", "assay": "Effect of HIF-2α inhibition in a model of active PAH (Example 37, interventional)", "excerpt": "Rats were kept in hypoxic conditions for the duration of this study. On the fourteenth day of test article dosing, the rats were anesthetized with ketamine/xylazine for terminal monitoring of pulmonary and systemic arterial pressures along with heart rate. […]"}, "[2]": {"test_system": "rats with hypoxia/semaxanib induced pulmonary arterial hypertension", "assay": "Prevention of PAH by a HIF-2α inhibitor (Example 36)", "method": "Two rats not exposed to either semaxanib or hypoxia served as hypertrophic sentinels for this study. Rats received a single injection of semaxanib (200 mg/kg, s.c.) on the same day as initiation of test article dosing and introduction to the hypoxic chamber. Rats were kept in hypoxic conditions for the duration of this study. On the twenty-eighth day of test article dosing, the rats were anesthetized with ketamine/xylazine for terminal monitoring of pulmonary and systemic arterial pressures along with heart rate. […]"}, "786-O-Hif-Luc cells": {"test_system": "786-O-Hif-Luc cells", "assay": "Luciferase Assay (HIF responsive elements reporter)", "settings": "read-out: Mean Luciferase EC50 (nM), 786-O-Hif-Luc cells", "procedure": "A pool of infected cells were then selected against 2 μg/mL of puromycin (P8833, Sigma) for 10 days followed by limited dilution to select single clones. […] Each concentration was tested in triplicate. After about 24 hours, luciferase activity was determined using ONE-Glo Luciferase Assay Reagent (E6110, Promega) following the manufacturer's recommended procedure. EC50 were calculated using Dotmatics software."}, "[3]": {"molecular_target": "T1, HIF-2α HIS TAG-PASB Domain (Homo sapiens, UniProt Q99814)", "T1 construct": "100 nM HIF-2α HIS TAG-PASB Domain", "T1 sequence (Q99814 240-350 limits assumed)": "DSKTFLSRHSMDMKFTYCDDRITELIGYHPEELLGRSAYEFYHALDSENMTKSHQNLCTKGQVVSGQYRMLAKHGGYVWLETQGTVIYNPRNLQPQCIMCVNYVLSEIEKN", "assay": "HIF-2α Scintillation Proximity Assay (SPA)", "assay_type": "binding", "settings": "read-out: Scintillation Proximity Assay IC50", "method_in_brief": "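IC50 values rest on percent inhibition, where the sample signal is scaled between high and low controls. Wells contain about 100 μL: compound dispensed as 2 μL of DMSO solution, 88 μL protein-probe mix and 10 μL of beads.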"}, "786-O cells": {"test_system": "786-O cells", "assay": "VEGF ELISA Assay", "assay_type": "cell-based", "settings": "Homo sapiens, 786-0", "method_in_brief": "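Secreted VEGF measured by ELISA, with EC50 from a four-parameter dose-response fit. Viability of the same plate read afterwards by CellTiter-Glo luminescence.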"}, "[4]": {"settings": "active PAH, 60/day bid oral Days 15 to 28, Mean ± SEM"}, "[5]": {"settings": "active PAH, Group 4, 60 mg/kg/day 14 days"}, "[6]": {"settings": "prevention, 60/day bid oral 28 days, Mean ± SEM"}, "[7]": {"settings": "prevention, Group 4, 30 mg/kg BID"}},
  "data": [
    {"smiles": "CCCc1nn(C)c2c(=O)[nH]c(-c3cc(S(=O)(=O)N4CCN(C)CC4)ccc3OCC)nc12", "note": "[sildenafil]", "values": [
      {"measurement": "Heart Wt", "setting": "[1]; [4]", "result": 1.25, "unit": "g"},
      {"measurement": "LV Wt", "setting": "[1]; [4]", "result": 0.75, "unit": "g"},
      {"measurement": "LW/BW", "setting": "[1]; [4]", "result": 6.68},
      {"measurement": "Lung Wt", "setting": "[1]; [4]", "result": 2.36, "unit": "g"},
      {"measurement": "MAP", "setting": "[1]; [4]", "result": 93, "unit": "mm Hg"},
      {"measurement": "Mean PAP", "setting": "[1]; [4]", "result": 36, "unit": "mm Hg"},
      {"measurement": "RV Wt", "setting": "[1]; [4]", "result": 0.35, "unit": "g"},
      {"measurement": "RV/BW", "setting": "[1]; [4]", "result": 0.98},
      {"measurement": "RV/LV + S", "setting": "[1]; [4]", "result": 0.46},
      {"measurement": "Systolic PAP", "setting": "[1]; [4]", "result": 56, "unit": "mm Hg"},
      {"measurement": "Group mean scores for smooth muscle hypertrophy", "setting": "[1]; [5]", "result": 2.6},
      {"measurement": "mean percentages of completely muscularized arterioles", "setting": "[1]; [5]", "result": 47.2, "unit": "%"},
      {"measurement": "mean percentages of non-muscularized arterioles", "setting": "[1]; [5]", "result": 1.1, "unit": "%"},
      {"measurement": "mean percentages of partially muscularized arterioles", "setting": "[1]; [5]", "result": 51.7, "unit": "%"},
      {"measurement": "pulmonary hypertrophy", "setting": "[1]; active PAH, compared to vehicle", "result": "reductions in pulmonary hypertrophy"},
      {"measurement": "reduction in RV/BW ratio", "setting": "[1]; active PAH, sildenafil 30 mg/kg twice daily, p<0.05", "result": 21, "unit": "%"},
      {"measurement": "heart rate compared to vehicle", "setting": "[1]; rat, in vivo", "result": "No substantive differences"},
      {"measurement": "Body Weight", "setting": "[1]; rat, in vivo, po", "result": 0.35, "unit": "kg"},
      {"measurement": "HR", "setting": "[1]; rat, in vivo, po", "result": 298, "unit": "bpm"},
      {"measurement": "RV/LV + S", "setting": "[2]; Fulton's Index, prevention, 60/day bid oral 28 days, Mean ± SEM", "result": "0.52 ± 0.04"},
      {"measurement": "Heart Wt", "setting": "[2]; [6]", "result": "1.23 ± 0.03", "unit": "g"},
      {"measurement": "LV Wt", "setting": "[2]; [6]", "result": "0.71 ± 0.02", "unit": "g"},
      {"measurement": "Lung Wt", "setting": "[2]; [6]", "result": "2.39 ± 0.07", "unit": "g"},
      {"measurement": "MAP", "setting": "[2]; [6]", "result": "92 ± 2", "unit": "mm Hg"},
      {"measurement": "Mean PAP", "setting": "[2]; [6]", "result": "38 ± 3", "unit": "mm Hg"},
      {"measurement": "RV Wt", "setting": "[2]; [6]", "result": "0.36 ± 0.03", "unit": "g"},
      {"measurement": "RV/BW", "setting": "[2]; [6]", "result": "1.12 ± 0.10"},
      {"measurement": "Systolic PAP", "setting": "[2]; [6]", "result": "55 ± 5", "unit": "mm Hg"},
      {"measurement": "mean percentages of completely muscularized arterioles", "setting": "[2]; [7]", "result": 58.7, "unit": "%"},
      {"measurement": "mean percentages of non-muscularized arterioles", "setting": "[2]; [7]", "result": 1.1, "unit": "%"},
      {"measurement": "mean percentages of partially muscularized arterioles", "setting": "[2]; [7]", "result": 40.2, "unit": "%"},
      {"measurement": "Group mean scores for smooth muscle hypertrophy", "setting": "[2]; prevention, Group 4, 30 mg/kg BID, lung histopathology", "result": 3.4},
      {"measurement": "pulmonary arteriolar smooth muscle hypertrophy compared to vehicle", "setting": "[2]; prevention, histopathology evaluation and arteriole counts", "result": "slight decrease"},
      {"measurement": "protection versus vehicle (systolic pulmonary arterial pressure)", "setting": "[2]; prevention, sildenafil group", "result": "showed protection versus vehicle"},
      {"measurement": "heart rate compared to vehicle", "setting": "[2]; rat, in vivo", "result": "No notable differences"},
      {"measurement": "HR", "setting": "[2]; rat, in vivo, po", "result": "289 ± 11", "unit": "bpm"}
    ]},
    {"smiles": "N#Cc1cccc(Oc2ccc(S(=O)(=O)C(F)F)c3c2CC(F)(F)[C@H]3O)c1", "note": "[Compound 236]", "values": [
      {"measurement": "EC50", "setting": "786-O-Hif-Luc cells", "result": "< 50", "unit": "nM"},
      {"measurement": "IC50", "setting": "[3]", "result": "< 0.05", "unit": "µM"},
      {"measurement": "EC50", "setting": "786-O cells", "result": "< 0.05", "unit": "µM"}
    ]},
    {"smiles": "O=S(=O)(CF)c1ccc(Oc2cc(F)cc(F)c2)c2c1[C@H](O)C(F)(F)C2", "note": "[Compound 64]", "values": [
      {"measurement": "EC50", "setting": "786-O-Hif-Luc cells", "result": "< 50", "unit": "nM"},
      {"measurement": "IC50", "setting": "[3]", "result": "< 0.05", "unit": "µM"},
      {"measurement": "EC50", "setting": "786-O cells", "result": "< 0.05", "unit": "µM"}
    ]},
    {"smiles": "N#Cc1c(S(=O)(=O)C(F)(F)F)ccc(Oc2cc(F)cc(Cl)c2)c1Br", "note": "[Compound 98]", "values": [
      {"measurement": "EC50", "setting": "786-O-Hif-Luc cells", "result": "> 1000", "unit": "nM"},
      {"measurement": "IC50", "setting": "[3]", "result": "< 0.05", "unit": "µM"},
      {"measurement": "EC50", "setting": "786-O cells", "result": "> 1", "unit": "µM"}
    ]}
  ]
}
